The results in this text go back to patent US7713926B2, “Method of producing partial peptide of enolase protein from Plasmodium falciparum” (National University Corporation Gunma University, priority 2004, dated 2010).

This assay concerns antibodies existing in sera from Plasmodium falciparum malaria patients and non-infected individuals. Kind of assay: Fluorescent ELISA of human sera on plate-fixed peptide compound (antibody level). Type of assay: binding. The following applies: peptide fixed on plastic plate as antigen. The protocol:
An antigen solution was prepared by dissolving 500 μg of the peptide compound (SEQ ID NO: 13) synthesized in Example 10 in 100 μl of dimethyl sulfoxide and by subsequently adding 1900 μl of a 0.05 M carbonate buffer (pH 9.6). The prepared antigen solution was dispensed by […] in each of […] on a plastic plate for fixation of the peptide compound.
The sera collected from Plasmodium falciparum malaria patients under informed consent at hospitals in Japan were used as subject sera, and the sera collected from non-infected individuals under informed consent in Japan were used as control sera. The subject sera and the control sera were individually added to the wells on the plastic plate to allow the antibodies existing in the respective sera to react with the peptide compound (SEQ ID NO: 13).
After removal of the serum, an enzyme-labeled secondary antibody against human immunoglobulin was added to each well for the immunological reaction. […] The measured antibody levels were expressed by relative fluorescence unit (RFU values).
FIG. 7 is a graph showing antibody levels of sera (1-7) from Plasmodium falciparum-infected patients and those of sera (8-12) from non-infected individuals (for the purpose of comparison) measured by the fluorescent ELISA method with the synthesized peptide compound (SEQ ID NO: 13). […]
(An ELISA detects its analyte on a solid surface through an enzyme-linked reagent.)

On to “H-Glu-Glu-Glu-Glu-Ala-Ser-Glu-Phe-Tyr-Asn-Ser-Glu-Asn-Lys-Thr-Tyr-Asp-Leu-Asp-Phe-Lys-Thr-Pro-Asn-Asn-Asp-Gly-Gly-OH (H-EEEEASEFYNSENKTYDLDFKTPNNDGG-OH) [SEQ ID NO: 13, partial peptide of enolase from Plasmodium falciparum, used as ELISA antigen]”, for which the “average antibody level of the non-infected individuals” value (control sera (8-12) from non-infected individuals, same fluorescent ELISA) came to 67 RFU. In addition, the “average antibody level of the malaria patients” value (sera (1-7) from Plasmodium falciparum-infected patients, enzyme-labeled secondary antibody against human immunoglobulin, 4-methylumbelliferyl phosphate) amounted to 181 RFU.
